# Laboratory results as given in US12187705B2, “Heteroaryl-triazole and heteroaryl-tetrazole compounds as pesticides” (Bayer Aktiengesellschaft, priority 2018, dated 2025).
# Columns and labels:
# Format in all cases: in vivo
# Boophilus microplus = Boophilus microplus injection test; details: Rhipicephalus microplus, 168 h, 20 μg/animal, egg deposition after 7 days, read-out: efficacy (infertile eggs)
# Procedure, shortened: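 Engorged adult female ticks, five per dose, received 1 μl of compound in DMSO injected into the abdomen and were kept in a climate chamber. Fertile egg deposition was checked after 7 days, with eggs of unclear fertility held until hatching at about 42 days. Efficacy 100% = all eggs infertile, 0% = all fertile.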
# Spodoptera frugiperda = Spodoptera frugiperda spray test; details: in Zea mays, 168 h
# Procedure, shortened: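 Caterpillars are placed on sprayed, dried maize leaf sections. Sprays contain compound diluted in water with emulsifier at 1000 ppm; mortality in % is determined 7 days later.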
# Myzus persicae = Myzus persicae oral test; details: 120 h
# Procedure, shortened: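 Feeding test: compound diluted in water was combined with IPL41 insect medium (33%+15% sugar) under a parafilm seal. A mixed population of green peach aphids fed through the membrane. Mortality (%) was scored after 5 days.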
# Rhipicephalus sanguineus = Rhipicephalus sanguineus in-vitro contact test with adult brown dog ticks; details: Rhipicephalus sanguineus; 5 μg/cm^2 (=500 g/ha), after 48 hours; read-out: efficacy (ticks dead or moribund)
# Description: Rhipicephalus sanguineus—In-Vitro Contact Test with Adult Brown Dog Ticks
# 9 mg compound is solved in 1 ml acetone and diluted with acetone to the desired concentration. 250 μl of the test solution is filled in 25 ml glass test tubes and homogeneously distributed on the inner walls by rotation and tilting on a shaking device (2 h at 30 rpm). With a compound concentration of 900 ppm, an inner surface of 44.7 cm^2 and a homogeneous distribution, a dose of 5 μg/cm^2 is achieved.
# After the solvent has evaporated, each test tube is filled with 5-10 adult brown dog ticks (Rhipicephalus sanguineus), closed with a perforated lid and incubated in a lying position at room temperature and relative humidity. After 48 hours efficacy is determined. The ticks are patted on the ground of the tubes and are incubated on a heating plate at 45-50° C. for at most 5 minutes. Immotile or uncoordinated moving ticks, which are not able to escape the heat by climbing upwards, are marked as dead or moribund.
# An efficacy of 100% means all ticks are dead or moribund; 0% means no ticks are dead or moribund.
# [1] = test system: Anopheles funestus strain FUMOZ-R; test: Anopheles funestus test (ANPHFU surface treatment & contact assay); details: surface concentration 20 mg/m^2, 30 minutes exposure, 24 hours after contact, read-out: efficacy (mortality)
# Procedure, shortened: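 Compound dissolved in acetone (2 mg/ml) with 2000 ppm rapeseed oil methyl ester, dried onto glazed tile; adult Anopheles funestus FUMOZ-R exposed for 30 minutes. Percent mortality scored 24 hours after contact.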
# [2] = test system: cattle ticks (Boophilus microplus) strane Parhurst, SP-resistant; test: Boophilus microplus dip test; details: 100 ppm, egg deposition after 7 days
# Description: Boophilus microplus—Dip Test
# Test animal: cattle ticks (Boophilus microplus) strane Parhurst, SP-resistant
# Solvent: dimethyl sulfoxide
# To produce a suitable preparation of active compound, 10 mg of active compound are dissolved in 0.5 ml solvent, and the concentrate is diluted with water to the desired concentration.
# This compound solution is pipetted into tubes. 8-10 engorged, adult, female cattle ticks (Boophilus microplus) are placed in perforated tubes. These tubes are immersed in the aqueous compound solution until the ticks are completely moistened. After the liquid has drained off, the ticks are transferred to a filter paper in a plastic tray and stored in a climate chamber.
# After 7 days egg deposition of fertile eggs is monitored. Eggs where fertility is not visible are stored in a climate chamber till hatching after about 42 days. An efficacy of 100% means all eggs are infertile; 0% means all eggs are fertile.
SMILES,pest or weed control at 0.02 mg (Boophilus microplus),mortality at 500 g/ha (Spodoptera frugiperda),mortality at 4 ppm (Myzus persicae),"pest or weed control at 5 µg/cm2, 5 µg/cm2 (Rhipicephalus sanguineus)",mortality at 20 mg/m2 [1],efficacy (infertile eggs) [2]
"CCN(C(=O)c1cc(Cl)cc(S(C)(=O)=O)c1)C(C)c1ncnn1-c1ncccn1 (stereo not shown) [Example I-040, 3-chloro-N-ethyl-5-(methylsulfonyl)-N-{1-[1-(pyrimidin-2-yl)-1H-1,2,4-triazol-5-yl]ethyl}benzamide]",100%,100%,100%,100%,–,–
C[C@@H](NC(=O)c1cc(Cl)cc(S(=O)(=O)C2CC2)c1)c1ncnn1-c1ncccn1 [Example I-042],100%,83%,100%,80%,85 to 100%,100%
